Test results as given in US8211935B2, “Heterocyclic derivatives for modulation of calcium channels” (Vertex Pharmaceuticals Incorporated, priority 2004, dated 2012).
Read-outs that look alike come from different tables or passages of the source.

Target: T1, CaV2.2 (Homo sapiens, UniProt Q00975)
T1 construct: expressed in transfected cells; host or cells: HEK293
Experiment: VIPR optical membrane potential assay with electrical stimulation
Type: cell-based
Method: Antagonist properties of test compounds were assessed as follows. Cells expressing the CaV of interest were placed into microtiter plates. After an incubation period, the cells were stained with fluorescent dyes sensitive to the transmembrane potential. The test compounds were added to the microtiter plate. The cells were stimulated with electrical means to evoke a CaV dependent membrane potential change from unblocked channels, which was detected and measured with trans-membrane potential-sensitive dyes. Antagonists were detected as a decreased membrane potential response to the stimulus.
VIPR® Optical Membrane Potential Assay Method with Electrical Stimulation
The following is an example of how CaV2.2 inhibition activity is measured using the optical membrane potential method. Other subtypes are performed in an analogous mode in a cell line expressing the CaV of interest.
HEK293 cells stably expressing CaV2.2 are plated into 96-well microtiter plates. After an appropriate incubation period, the cells are stained with the voltage sensitive dyes CC2-DMPE/DiSBAC2(3) as follows.
2×CC2-DMPE=20 μM CC2-DMPE: 10 mM CC2-DMPE is vortexed with an equivalent volume of 10% Pluronic, followed by vortexing in required amount of HBSS containing 10 mM HEPES. Each cell plate will require 5 mL of 2×CC2-DMPE. 50 μL of 2×CC2-DMPE is added to wells containing washed cells, resulting in a 10 μM final staining concentration. The cells are stained for 30 minutes in the dark at RT.
Vortex in required amount of Bath X with beta-cyclodextrin. Each 96 well cell plate will require 5 ml of 2×CC2DMPE. Wash plate with ELx405 with Bath X, leaving a residual volume of 50 μL/well. Add 50 μL of 2×CC2DMPE & DISBAC6(3) to each well. Stain for 30 minutes in the dark at RT.
Allow solution to sit for 10 minutes. Slowly mix in 370 mM BaCl2. This solution can be used to solvate compound plates. Note that compound plates are made at 1.5× drug concentration and not the usual 2×. Wash CC2 stained plate, again, leaving residual volume of 50 pt. Add 100 uL/well of the AY17 solution. Stain for 15 minutes in the dark at RT. Run plate on the optical reader.
The instrument comprises a microtiter plate handler, an optical system for exciting the coumarin dye while simultaneously recording the coumarin and oxonol emissions, a waveform generator, a current- or voltage-controlled amplifier, and a device for inserting electrodes in well. Under integrated computer control, this instrument passes user-programmed electrical stimulus protocols to cells within the wells of the microtiter plate.
Insert or use electrodes into each well to be assayed.
Use the current-controlled amplifier to deliver stimulation wave pulses for 3-5 s. Two seconds of pre-stimulus recording are performed to obtain the un-stimulated intensities. Five seconds of post-stimulation recording are performed to examine the relaxation to the resting state.
Data are analyzed and reported as normalized ratios of background-subtracted emission intensities measured in the 460 nm and 580 nm channels. Background intensities are then subtracted from each assay channel. Background intensities are obtained by measuring the emission intensities during the same time periods from identically treated assay wells in which there are no cells. The response as a function of time is then reported as the ratios obtained using the following formula: […]
The data is further reduced by calculating the initial (Ri) and final (Rf) ratios. These are the average ratio values during part or all of the pre-stimulation period, and during sample points during the stimulation period. The response to the stimulus R=Rf/Ri is then calculated.
Control responses are obtained by performing assays in the presence of a compound with the desired properties (positive control), such as mibefradil, and in the absence of pharmacological agents (negative control). Responses to the negative (N) and positive (P) controls are calculated as above.

[1] = Table 3, biological assay data, read-out: IC50

T1 sequence (Q00975 whole entry): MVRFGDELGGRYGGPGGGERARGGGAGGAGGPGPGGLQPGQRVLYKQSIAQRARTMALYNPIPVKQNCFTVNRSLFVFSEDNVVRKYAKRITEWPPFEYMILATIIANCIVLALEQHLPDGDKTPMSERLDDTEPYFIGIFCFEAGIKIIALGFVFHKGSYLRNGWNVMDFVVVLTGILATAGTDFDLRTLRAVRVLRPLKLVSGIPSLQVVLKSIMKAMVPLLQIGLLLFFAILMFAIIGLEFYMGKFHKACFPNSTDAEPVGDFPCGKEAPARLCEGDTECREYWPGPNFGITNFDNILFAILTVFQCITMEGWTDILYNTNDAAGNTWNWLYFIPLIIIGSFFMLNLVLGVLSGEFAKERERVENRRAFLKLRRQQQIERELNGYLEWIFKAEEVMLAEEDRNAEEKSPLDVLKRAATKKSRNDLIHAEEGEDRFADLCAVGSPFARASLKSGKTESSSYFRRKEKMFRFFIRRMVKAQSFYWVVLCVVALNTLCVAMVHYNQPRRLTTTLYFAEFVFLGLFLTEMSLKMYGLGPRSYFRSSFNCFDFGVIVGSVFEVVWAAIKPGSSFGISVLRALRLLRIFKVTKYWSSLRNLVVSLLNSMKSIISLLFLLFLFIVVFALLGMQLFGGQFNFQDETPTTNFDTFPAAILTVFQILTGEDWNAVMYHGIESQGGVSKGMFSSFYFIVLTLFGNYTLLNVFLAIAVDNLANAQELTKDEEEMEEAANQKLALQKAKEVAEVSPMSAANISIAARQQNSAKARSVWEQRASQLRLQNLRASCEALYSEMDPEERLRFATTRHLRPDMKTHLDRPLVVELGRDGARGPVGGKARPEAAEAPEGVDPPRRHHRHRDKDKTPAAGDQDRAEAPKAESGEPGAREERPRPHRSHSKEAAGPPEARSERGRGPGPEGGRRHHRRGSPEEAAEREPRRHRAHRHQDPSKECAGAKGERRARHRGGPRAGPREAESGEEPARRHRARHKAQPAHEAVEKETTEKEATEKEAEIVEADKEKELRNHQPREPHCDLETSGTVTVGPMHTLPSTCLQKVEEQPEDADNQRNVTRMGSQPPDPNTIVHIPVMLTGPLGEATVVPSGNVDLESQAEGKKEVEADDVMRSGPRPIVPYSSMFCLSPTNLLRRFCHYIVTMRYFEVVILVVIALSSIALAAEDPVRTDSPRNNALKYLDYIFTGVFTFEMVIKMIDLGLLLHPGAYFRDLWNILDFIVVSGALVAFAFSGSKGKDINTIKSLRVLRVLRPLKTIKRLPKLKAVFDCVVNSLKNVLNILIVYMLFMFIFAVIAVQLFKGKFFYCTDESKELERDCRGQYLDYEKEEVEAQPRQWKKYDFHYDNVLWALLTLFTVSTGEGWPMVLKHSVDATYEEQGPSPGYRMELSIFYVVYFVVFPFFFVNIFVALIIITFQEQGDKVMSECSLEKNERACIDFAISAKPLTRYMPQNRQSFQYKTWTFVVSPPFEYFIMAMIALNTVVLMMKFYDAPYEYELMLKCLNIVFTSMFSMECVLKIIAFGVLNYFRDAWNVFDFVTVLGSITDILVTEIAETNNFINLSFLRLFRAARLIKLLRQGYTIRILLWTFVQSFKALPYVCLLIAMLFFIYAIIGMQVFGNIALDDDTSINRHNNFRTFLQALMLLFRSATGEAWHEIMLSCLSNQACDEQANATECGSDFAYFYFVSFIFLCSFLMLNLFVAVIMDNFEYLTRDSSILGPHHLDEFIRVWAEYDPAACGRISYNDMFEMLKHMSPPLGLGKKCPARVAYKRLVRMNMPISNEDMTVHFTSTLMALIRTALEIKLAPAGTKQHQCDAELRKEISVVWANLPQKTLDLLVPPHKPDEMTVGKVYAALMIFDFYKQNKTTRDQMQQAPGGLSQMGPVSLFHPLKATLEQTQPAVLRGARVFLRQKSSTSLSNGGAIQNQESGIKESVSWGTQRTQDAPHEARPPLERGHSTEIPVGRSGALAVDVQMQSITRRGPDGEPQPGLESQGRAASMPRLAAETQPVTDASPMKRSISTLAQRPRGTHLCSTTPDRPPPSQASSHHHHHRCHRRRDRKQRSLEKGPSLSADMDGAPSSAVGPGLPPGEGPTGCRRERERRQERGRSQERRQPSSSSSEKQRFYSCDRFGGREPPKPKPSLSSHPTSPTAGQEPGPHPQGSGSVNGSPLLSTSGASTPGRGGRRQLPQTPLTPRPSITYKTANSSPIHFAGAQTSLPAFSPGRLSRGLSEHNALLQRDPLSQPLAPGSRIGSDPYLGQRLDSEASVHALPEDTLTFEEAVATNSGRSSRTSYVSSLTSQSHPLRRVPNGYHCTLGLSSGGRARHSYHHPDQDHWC
T1 sequence (P54284 whole entry partner): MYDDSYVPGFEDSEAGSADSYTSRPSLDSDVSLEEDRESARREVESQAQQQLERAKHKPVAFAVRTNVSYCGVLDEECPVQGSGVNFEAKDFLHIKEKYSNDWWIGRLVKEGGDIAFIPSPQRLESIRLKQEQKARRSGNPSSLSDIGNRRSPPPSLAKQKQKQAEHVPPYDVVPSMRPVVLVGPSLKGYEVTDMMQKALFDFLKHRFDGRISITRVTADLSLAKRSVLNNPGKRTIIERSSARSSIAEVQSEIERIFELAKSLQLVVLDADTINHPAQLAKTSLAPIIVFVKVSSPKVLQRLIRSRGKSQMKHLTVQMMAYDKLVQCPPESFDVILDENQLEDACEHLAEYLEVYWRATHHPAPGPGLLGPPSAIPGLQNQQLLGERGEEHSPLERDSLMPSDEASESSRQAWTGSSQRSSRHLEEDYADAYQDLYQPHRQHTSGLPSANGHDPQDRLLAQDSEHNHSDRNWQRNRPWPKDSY
T1 sequence (P54289 25-946 partner limits assumed): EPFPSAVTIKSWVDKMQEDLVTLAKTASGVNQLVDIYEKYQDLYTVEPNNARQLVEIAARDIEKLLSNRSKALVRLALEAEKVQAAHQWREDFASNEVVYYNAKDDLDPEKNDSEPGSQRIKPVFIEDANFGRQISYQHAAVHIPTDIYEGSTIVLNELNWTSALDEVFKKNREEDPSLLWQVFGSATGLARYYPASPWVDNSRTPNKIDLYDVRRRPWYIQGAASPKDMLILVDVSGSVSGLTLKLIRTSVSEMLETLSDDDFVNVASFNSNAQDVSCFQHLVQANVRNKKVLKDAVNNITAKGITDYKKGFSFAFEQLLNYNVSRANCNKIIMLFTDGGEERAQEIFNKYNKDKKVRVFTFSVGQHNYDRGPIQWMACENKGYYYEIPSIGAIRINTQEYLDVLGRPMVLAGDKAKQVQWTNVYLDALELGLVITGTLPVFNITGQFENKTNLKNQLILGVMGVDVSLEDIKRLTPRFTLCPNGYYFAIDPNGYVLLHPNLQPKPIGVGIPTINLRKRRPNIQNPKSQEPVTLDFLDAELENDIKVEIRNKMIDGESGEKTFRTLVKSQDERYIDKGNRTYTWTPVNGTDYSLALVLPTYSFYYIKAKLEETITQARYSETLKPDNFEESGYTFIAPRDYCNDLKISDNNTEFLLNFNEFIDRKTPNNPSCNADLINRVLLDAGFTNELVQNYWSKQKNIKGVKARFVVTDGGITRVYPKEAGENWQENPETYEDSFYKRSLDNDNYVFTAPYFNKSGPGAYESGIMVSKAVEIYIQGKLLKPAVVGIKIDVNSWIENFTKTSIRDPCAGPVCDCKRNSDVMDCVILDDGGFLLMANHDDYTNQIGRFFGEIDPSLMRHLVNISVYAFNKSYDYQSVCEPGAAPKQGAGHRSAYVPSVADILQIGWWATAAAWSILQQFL
T1 sequence (P54289 947-1103 partner limits assumed): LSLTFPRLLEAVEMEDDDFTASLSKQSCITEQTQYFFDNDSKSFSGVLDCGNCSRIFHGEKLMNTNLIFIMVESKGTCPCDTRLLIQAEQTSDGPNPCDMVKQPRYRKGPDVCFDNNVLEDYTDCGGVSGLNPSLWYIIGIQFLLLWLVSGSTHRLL

Row | Structure (SMILES) | IC50 [1] | IC50
1 | CCN(CC)C(=O)c1cc2cc(S(=O)(=O)N3CCCCCC3)ccc2o1 [compound 1] | 5 to 20 µM | 
2 | CC1CC(C)CN(S(=O)(=O)c2ccc3oc(C(=O)NCCc4ccccc4)cc3c2)C1 (stereo not drawn) [compound 2] | < 5 µM | 
3 | Cc1c(C(=O)N2CCN(C)CC2)[nH]c2ccc(S(=O)(=O)N3CCCCCC3)cc12 [compound 3] | < 20 µM | 
4 | Cc1c(C(=O)N2CCC(C)CC2)oc2ccc(S(=O)(=O)N3CCC4(CC3)OCCO4)cc12 [compound 4] | 5 to 20 µM | 
5 | O=C(NCCCc1ccccc1)c1cc2cc(S(=O)(=O)N3CCCCCC3)ccc2[nH]1 [compound 5] | < 5 µM | 
6 | Cc1c(C(=O)NCCC2CCOCC2)oc2ccc(S(=O)(=O)N3CC(C)CC(C)C3)cc12 (stereo not drawn) [compound 6] | < 5 µM | 
7 | CCN(CC)C(=O)c1[nH]c2ccc(S(=O)(=O)N3CC(C)CC(C)C3)cc2c1C (stereo not drawn) [compound 7] | < 5 µM | 
8 | CC1CCN(S(=O)(=O)c2ccc3[nH]c(C(=O)NCCC4CCOCC4)cc3c2)CC1 [compound 8] | < 5 µM | 
9 | Cc1c(C(=O)NC2CCCCC2)oc2ccc(S(=O)(=O)N3CCCC(C)C3)cc12 (stereo not drawn) [compound 9] | < 5 µM | 
10 | CNC(=O)c1oc2ccc(S(=O)(=O)N3CCC(C)CC3)cc2c1C [compound 10] | 5 to 20 µM | 
11 | CC1CCN(S(=O)(=O)c2ccc3[nH]c(CN4CCCCC4)cc3c2)CC1 [compound 11] | < 5 µM | 
12 | Cc1c(C(=O)N2CCCC2)oc2ccc(S(=O)(=O)N3CCC(C)CC3)cc12 [compound 12] | 5 to 20 µM | 
13 | Cc1c(C(=O)NCCc2ccccc2)[nH]c2ccc(S(=O)(=O)N3CC(C)CC(C)C3)cc12 (stereo not drawn) [compound 13] | < 5 µM | 
14 | Cc1c(C(=O)N2CCCCC2C)oc2ccc(S(=O)(=O)N3CCOCC3)cc12 (stereo not drawn) [compound 14] | < 20 µM | 
15 | CCN(CC)C(=O)c1oc2ccc(S(=O)(=O)N3CCC(C)CC3)cc2c1C [compound 15] | 5 to 20 µM | 
16 | CC1CC(C)CN(S(=O)(=O)c2ccc3[nH]c(C(=O)NCC4CCCO4)cc3c2)C1 (stereo not drawn) [compound 16] | < 5 µM | 
17 | CC1CC(C)CN(C(=O)c2cc3cc(S(=O)(=O)N4CCCCCC4)ccc3[nH]2)C1 (stereo not drawn) [compound 17] | 5 to 20 µM | 
18 | Cc1c(C(=O)N2CCCC2)oc2ccc(S(=O)(=O)N3CCCCC3)cc12 [compound 18] | 5 to 20 µM | 
19 | CCOC(=O)C1CCN(C(=O)c2oc3ccc(S(=O)(=O)N4CCCCCC4)cc3c2C)CC1 [compound 19] | < 5 µM | 

Row | Structure (SMILES) | IC50 [1] | IC50
20 | Cc1c(C(=O)NC2CC2)oc2ccc(S(=O)(=O)Nc3ncccn3)cc12 [compound 20] | < 20 µM | 
21 | Cc1c(C(=O)NC(C)C)oc2ccc(S(=O)(=O)N3CC(C)CC(C)C3)cc12 (stereo not drawn) [compound 21] | < 5 µM | 
22 | CNC(=O)c1oc2ccc(S(=O)(=O)N3CCOCC3)cc2c1C [compound 22] | < 20 µM | 
23 | O=C(NCCC1CCOCC1)c1cc2cc(S(=O)(=O)N3CCCCCC3)ccc2o1 [compound 23] | < 5 µM | 
24 | Cc1c(C(=O)NC2CC2)oc2ccc(S(=O)(=O)N(CCN(C)C)Cc3ccccc3)cc12 [compound 24] | < 20 µM | 
25 | Cc1c(C(=O)NC2CC2)oc2ccc(S(=O)(=O)NCCN3CCCCC3)cc12 [compound 25] | < 20 µM | 
26 | Cc1c(C(=O)N2CCCC2)oc2ccc(S(=O)(=O)N3CCOCC3)cc12 [compound 26] | < 20 µM | 
27 | Cc1c(C(=O)NCCC2CCOCC2)[nH]c2ccc(S(=O)(=O)N3CCC(C)CC3)cc12 [compound 27] | 5 to 20 µM | 
28 | Cc1c(C(=O)NC(C)c2ccccc2)oc2ccc(S(=O)(=O)N3CCCC3)cc12 (stereo not drawn) [compound 28] | < 20 µM | 
29 | CC1CC(C)CN(C(=O)c2cc3cc(S(=O)(=O)N4CC(C)CC(C)C4)ccc3o2)C1 (stereo not drawn) [compound 29] | < 5 µM | 
30 | CNC(=O)c1[nH]c2ccc(S(=O)(=O)N3CCC(C)CC3)cc2c1C [compound 30] | 5 to 20 µM | 
31 | CCN(CC)C(=O)c1cc2cc(S(=O)(=O)N3CC(C)CC(C)C3)ccc2o1 (stereo not drawn) [compound 31] | < 5 µM | 
32 | Cc1c(C(=O)NCC2CCCO2)oc2ccc(S(=O)(=O)N3CC(C)CC(C)C3)cc12 (stereo not drawn) [compound 32] | < 5 µM | 
33 | Cc1c(C(=O)N2CC(C)CC(C)C2)oc2ccc(S(=O)(=O)N3CCC(C)CC3)cc12 (stereo not drawn) [compound 33] | 5 to 20 µM | 
34 | O=C(NCc1ccccc1)c1cc2cc(S(=O)(=O)N3CCCCCC3)ccc2o1 [compound 34] | < 5 µM | 
35 | Cc1c(C(=O)NC2CC2)oc2ccc(S(=O)(=O)N3CCC(F)(F)CC3)cc12 [compound 35] | 5 to 20 µM | 
36 | CC1CCN(S(=O)(=O)c2ccc3[nH]c(C(=O)NCc4ccccc4)cc3c2)CC1 [compound 36] | < 5 µM | 
37 | CNC(=O)c1cc2cc(S(=O)(=O)N3CC(C)CC(C)C3)ccc2[nH]1 (stereo not drawn) [compound 37] | < 5 µM | 
38 | Cc1c(C(=O)NCC2CCOCC2)oc2ccc(S(=O)(=O)N3CCCCCC3)cc12 [compound 38] | 5 to 20 µM | 

Row | Structure (SMILES) | IC50 [1] | IC50
39 | Cc1c(C(=O)NC2CCC(C)CC2)oc2ccc(S(=O)(=O)N3CCOCC3)cc12 (stereo not drawn) [compound 39] | < 20 µM | 
40 | O=C(NCCCc1ccccc1)c1cc2cc(S(=O)(=O)N3CCCCCC3)ccc2o1 [compound 40] | < 5 µM | 
41 | O=C(NC1CCCC1)c1cc2cc(S(=O)(=O)N3CCCCCC3)ccc2[nH]1 [compound 41] | 5 to 20 µM | 
42 | Cc1c(C(=O)N2CCCCC2C)oc2ccc(S(=O)(=O)N3CCC(C)CC3)cc12 (stereo not drawn) [compound 42] | < 5 µM | 
43 | CN(Cc1ccccc1)C(=O)c1cc2cc(S(=O)(=O)N3CCCCCC3)ccc2o1 [compound 43] | < 5 µM | 
44 | Cc1c(C(=O)NCc2ccccc2)oc2ccc(S(=O)(=O)N3CCCCCC3)cc12 [compound 44] | 5 to 20 µM | 
45 | Cc1c(C(=O)N2CCCCCC2)oc2ccc(S(=O)(=O)N3CCCCCC3)cc12 [compound 45] | < 5 µM | 
46 | CCN(CC)C(=O)c1cc2cc(S(=O)(=O)N3CCCCCC3)ccc2[nH]1 [compound 46] | < 5 µM | 
47 | Cc1c(C(=O)NC(C)C)oc2ccc(S(=O)(=O)N3CCCC(C)C3)cc12 (stereo not drawn) [compound 47] | 5 to 20 µM | 
48 | O=C(NCCc1ccccc1)c1cc2cc(S(=O)(=O)N3CCCCCC3)ccc2o1 [compound 48] | < 5 µM | 
49 | Cc1c(C(=O)NCCCc2ccccc2)[nH]c2ccc(S(=O)(=O)N3CC(C)CC(C)C3)cc12 (stereo not drawn) [compound 49] | < 5 µM | 
50 | Cc1c(C(=O)NC2CC2)oc2ccc(S(=O)(=O)Nc3ccccn3)cc12 [compound 50] | < 20 µM | 
51 | CCN(CC)S(=O)(=O)c1ccc2oc(C(=O)NC)c(C)c2c1 [compound 51] | < 20 µM | 
52 | CC(C)N(C(=O)c1cc2cc(S(=O)(=O)N3CCCCCC3)ccc2[nH]1)C(C)C [compound 52] | 5 to 20 µM | 
53 | CC1CC(C)CN(S(=O)(=O)c2ccc3oc(C(=O)NCCCc4ccccc4)cc3c2)C1 (stereo not drawn) [compound 53] | < 5 µM | 
54 | CC1CCN(S(=O)(=O)c2ccc3[nH]c(C(=O)N4CCC5(CC4)OCCO5)cc3c2)CC1 [compound 54] |  | 5 to 20 µM
55 | CC1CCCN(C(=O)c2cc3cc(S(=O)(=O)N4CCCCCC4)ccc3[nH]2)C1 (stereo not drawn) [compound 55] | < 5 µM | 
56 | Cc1c(C(=O)NCCCc2ccccc2)oc2ccc(S(=O)(=O)N3CC(C)CC(C)C3)cc12 (stereo not drawn) [compound 56] | < 5 µM | 
57 | Cc1c(C(=O)NC(C)C2=CCCCC2)oc2ccc(S(=O)(=O)N3CCCCC3)cc12 (stereo not drawn) [compound 57] | 5 to 20 µM | 
